Reference: patent US3966718A, “7-β-Acylamino-ceph-3-ems and salts and esters therefor” (Beecham Group Limited, priority 1973, dated 1976)
Structures can show the parent of a compound that is named as a salt. Where two headings read alike, the source gives them in different places.

What was measured:
Assay type in all cases: cell-based
Strep. pneumoniae CN33 = experiment: MIC on (nutrient) agar; conditions: Streptococcus pneumoniae, read-out: minimum inhibitory concentration (MIC)
Klebsiella aerogenes A = experiment: MIC on nutrient agar; conditions: read-out: minimum inhibitory concentration (MIC)
β-Haemolytic Strep. CN10 = experiment: MIC on (nutrient) agar; conditions: β-Haemolytic Strep. CN10, agar; read-out: minimum inhibitory concentration (MIC)
Proteus mirabilis C977 = experiment: MIC on nutrient agar; conditions: Proteus mirabilis C977, nutrient agar; read-out: minimum inhibitory concentration (MIC)
Salmonella typhi = experiment: MIC on nutrient agar; conditions: Salmonella enterica, read-out: minimum inhibitory concentration (MIC)
Staph. aureus Russell = experiment: MIC on (nutrient) agar; conditions: Staphylococcus aureus; Staph. aureus Russell, agar; read-out: minimum inhibitory concentration (MIC)
Shigella sonnei = experiment: MIC on nutrient agar; conditions: read-out: minimum inhibitory concentration (MIC)
Staph. aureus Oxford = experiment: MIC on (nutrient) agar; conditions: Staphylococcus aureus, read-out: minimum inhibitory concentration (MIC)
B. subtilis = experiment: MIC on (nutrient) agar; conditions: Bacillus subtilis; B. subtilis, agar; read-out: minimum inhibitory concentration (MIC)
E. coli NCTC 10418 = experiment: MIC on nutrient agar; conditions: Escherichia coli, NCTC10418; E. coli NCTC 10418, nutrient agar; read-out: minimum inhibitory concentration (MIC)
E. coli JT 1 = experiment: MIC on nutrient agar; conditions: Escherichia coli, JT1; E. coli JT 1, nutrient agar; read-out: minimum inhibitory concentration (MIC)
[1] = Klebsiella aerogenes A, nutrient agar

Structure (SMILES): O=C(O)C1=C(Cc2cccnc2)CS[C@@H]2[C@H](NC(=O)[C@H](NC(=O)N3CCNC3=O)c3ccccc3)C(=O)N12 [Example 8, 7β-[D-2-(1-imidazolidonecarbonylamino)phenylacetamido]-3(3-pyridylmethyl)-3-cephem-4-carboxylic acid trifluoroacetic acid salt]
- MIC (Strep. pneumoniae CN33): 0.25 µg/mL
- MIC (Klebsiella aerogenes A; [1]): 12.5 µg/mL
- MIC (β-Haemolytic Strep. CN10): 0.12 µg/mL
- MIC (Proteus mirabilis C977): 50 µg/mL
- MIC (Salmonella typhi): 25 µg/mL
- MIC (Staph. aureus Russell): 12.5 µg/mL
- MIC (Shigella sonnei): 25 µg/mL
- MIC (Staph. aureus Oxford): 0.25 µg/mL
- MIC (B. subtilis): 1.25 µg/mL
- MIC (E. coli NCTC 10418): 25 µg/mL

Structure (SMILES): O=C(COc1ccccc1)N[C@@H]1C(=O)N2C(C(=O)O)=C(Cc3cccnc3)CS[C@H]12 [Example 9, 7β-phenoxyacetamido-3(3-pyridylmethyl)-3-cephem-4-carboxylic acid trifluoroacetic acid salt]
- MIC (Strep. pneumoniae CN33): 0.12 µg/mL
- MIC (Klebsiella aerogenes A; [1]): 500 µg/mL
- MIC (β-Haemolytic Strep. CN10): 0.12 µg/mL
- MIC (Proteus mirabilis C977): 125 µg/mL
- MIC (Salmonella typhi): 500 µg/mL
- MIC (Staph. aureus Russell): 0.12 µg/mL
- MIC (Shigella sonnei): 500 µg/mL
- MIC (Staph. aureus Oxford): 0.02 µg/mL
- MIC (B. subtilis): 0.25 µg/mL
- MIC (E. coli NCTC 10418): 500 µg/mL

Structure (SMILES): CCSCC(=O)N[C@@H]1C(=O)N2C(C(=O)O)=C(Cc3cccnc3)CS[C@H]12 [Example 10, 7β-ethylthioacetamido-3(3-pyridylmethyl)-3-cephem-4-carboxylic acid trifluoroacetic acid salt]
- MIC (Strep. pneumoniae CN33): 0.25 µg/mL
- MIC (Klebsiella aerogenes A; [1]): 50 µg/mL
- MIC (β-Haemolytic Strep. CN10): 0.12 µg/mL
- MIC (Proteus mirabilis C977): 25 µg/mL
- MIC (Salmonella typhi): 50 µg/mL
- MIC (Staph. aureus Russell): 1.25 µg/mL
- MIC (Shigella sonnei): 50 µg/mL
- MIC (Staph. aureus Oxford): 0.05 µg/mL
- MIC (B. subtilis): 0.5 µg/mL
- MIC (E. coli NCTC 10418): 50 µg/mL

Structure (SMILES): N=C(N)N[C@@H](C(=O)N[C@@H]1C(=O)N2C(C(=O)O)=C(Cc3cccnc3)CS[C@H]12)c1ccccc1 [Example 11, 7β(Dα-guanidinophenylacetamido)-3(3-pyridylmethyl)-3-cephem-4-carboxylic acid di-trifluoroacetic acid salt]
- MIC (Strep. pneumoniae CN33): 0.1 µg/mL
- MIC (Klebsiella aerogenes A; [1]): > 100 µg/mL
- MIC (β-Haemolytic Strep. CN10): 0.1 µg/mL
- MIC (Proteus mirabilis C977): > 100 µg/mL
- MIC (Salmonella typhi): > 100 µg/mL
- MIC (Staph. aureus Russell): 2.5 µg/mL
- MIC (Shigella sonnei): > 100 µg/mL
- MIC (Staph. aureus Oxford): 0.5 µg/mL
- MIC (B. subtilis): 2.5 µg/mL
- MIC (E. coli NCTC 10418): > 100 µg/mL

Structure (SMILES): C[n+]1cccc(CC2=C(C(=O)O)N3C(=O)[C@@H](NC(=O)[C@H](N)c4ccccc4)[C@H]3SC2)c1 [Example 12, 7β(Dα-aminophenylacetamido)-3(3-pyridylmethyl)-3-cephem-4-carboxylic acid metho-trifluoroacetate trifluoroacetic acid salt]
- MIC (Strep. pneumoniae CN33): 0.25 µg/mL
- MIC (Klebsiella aerogenes A; [1]): 50 µg/mL
- MIC (β-Haemolytic Strep. CN10): 0.05 µg/mL
- MIC (Proteus mirabilis C977): 125 µg/mL
- MIC (Salmonella typhi): 50 µg/mL
- MIC (Staph. aureus Russell): 12.5 µg/mL
- MIC (Shigella sonnei): 50 µg/mL
- MIC (Staph. aureus Oxford): 0.25 µg/mL
- MIC (B. subtilis): 0.5 µg/mL
- MIC (E. coli NCTC 10418): 50 µg/mL

Structure (SMILES): N[C@@H](C(=O)N[C@@H]1C(=O)N2C(C(=O)O)=C(Cc3cccnc3)CS[C@H]12)c1ccc(O)cc1 [Example 13, 7-(2-Amino-2-p-hydroxyphenylacetamido)-4-carboxy-3-(3-pyridylmethyl) ceph-3-em bis-trifluoroacetic acid salt]
- MIC (Strep. pneumoniae CN33): 0.12 µg/mL
- MIC (Klebsiella aerogenes A; Klebsiella aerogenes): 1.25 µg/mL
- MIC (β-Haemolytic Strep. CN10): 0.12 µg/mL
- MIC (Proteus mirabilis C977): 5 µg/mL
- MIC (Salmonella typhi): 1.25 µg/mL
- MIC (Staph. aureus Russell): 2.5 µg/mL
- MIC (Shigella sonnei): 5 µg/mL
- MIC (Staph. aureus Oxford): 0.25 µg/mL
- MIC (B. subtilis): 0.25 µg/mL
- MIC (E. coli NCTC 10418): 5 µg/mL

Structure (SMILES): O=C(O)CSCC(=O)N[C@@H]1C(=O)N2C(C(=O)O)=C(Cc3cccnc3)CS[C@H]12 [Example 14, 4-Carboxy-7-carboxymethylthioacetamido-3-(3-pyridylmethyl)ceph-3-em trifluoroacetic acid salt]
- MIC (Strep. pneumoniae CN33): 12.5 µg/mL
- MIC (Klebsiella aerogenes A; [1]): 25 µg/mL
- MIC (β-Haemolytic Strep. CN10): 5 µg/mL
- MIC (Proteus mirabilis C977): 50 µg/mL
- MIC (Salmonella typhi): 50 µg/mL
- MIC (Staph. aureus Russell): 12.5 µg/mL
- MIC (Shigella sonnei): 50 µg/mL
- MIC (Staph. aureus Oxford): 1.25 µg/mL
- MIC (B. subtilis): 25 µg/mL
- MIC (E. coli NCTC 10418): 50 µg/mL

Structure (SMILES): NC(C(=O)N[C@@H]1C(=O)N2C(C(=O)O)=C(Cc3cccnc3)CS[C@H]12)c1cccs1 (stereo partly drawn) [Example 15, 7-β-[(dl)-α-Amino-2-thienylacetamido]-3-(3-pyridylmethyl)-3-cephem-4-carboxylic acid Di-trifluoroacetic acid salt]
- MIC (Klebsiella aerogenes A; [1]): 5 µg/mL
- MIC (β-Haemolytic Strep. CN10): 0.5 µg/mL
- MIC (Proteus mirabilis C977): 12.5 µg/mL
- MIC (Salmonella typhi): 2.5 µg/mL
- MIC (Staph. aureus Russell): 5 µg/mL
- MIC (Shigella sonnei): 5 µg/mL
- MIC (Staph. aureus Oxford): 0.5 µg/mL
- MIC (B. subtilis): 1.25 µg/mL
- MIC (E. coli JT 1): 12.5 µg/mL

Structure (SMILES): O=C(CSc1ccncc1)N[C@@H]1C(=O)N2C(C(=O)O)=C(Cc3cccnc3)CS[C@H]12 [Example 16, 7β(4-pyridylthioacetamido)-3(3-pyridylmethyl)-3-cephem-4-carboxylic acid di-trifluoroacetic acid salt]
- MIC (Strep. pneumoniae CN33): < 0.02 µg/mL
- MIC (Klebsiella aerogenes A; [1]): 5 µg/mL
- MIC (β-Haemolytic Strep. CN10): < 0.02 µg/mL
- MIC (Proteus mirabilis C977): 100 µg/mL
- MIC (Salmonella typhi): 10 µg/mL
- MIC (Staph. aureus Russell): 1 µg/mL
- MIC (Shigella sonnei): 25 µg/mL
- MIC (Staph. aureus Oxford): < 0.02 µg/mL
- MIC (B. subtilis): < 0.02 µg/mL
- MIC (E. coli NCTC 10418): 25 µg/mL
